“And” between values parts separate entries of the source, which are not always exact repeats. Identical values can stand only once.
Test system: CqsS-mKATE2
Assay: Qrr4 regulation of CqsS-mKATE2 translational fusion, anhydrous tetracycline-inducible qrr4 (S4 Fig)
Format: cell-based, E. coli
Text: We examined whether Qrr regulation of CqsS is direct or indirect using a CqsS-mKATE2 translational fusion in E. coli expressing inducible qrr4. We reasoned that, if CqsS production is controlled by Qrr4, repression of CqsS-mKATE2 should occur when Qrr4 is induced. We verified that our system works by showing that inducible Qrr4 is capable of repressing a previously-identified direct target, VCA0107-GFP [24]. However, no repression of CqsS-mKATE2 occurred following induction of Qrr4 (S4 Fig).
To assay qrr4 regulation of cqsS, the relative fluorescence of translational fusions (VCA0107B-GFP and CqsS-mKATE2) was measured in E. coli BWR1. E. coli carrying one of these plasmids also contained either an empty plasmid (pZA31) or pZA31 carrying anhydrous tetracycline-inducible qrr4. Qrr4-mediated repression of CqsS-mKATE2 was assessed. VCA0107-GFP is a known Qrr4-repressed target and was used as a positive control to show the system was functional. Overnight cultures were diluted 1:50 into fresh medium and aliquotted in triplicate into 96 well plates. […] OD600 and fluorescence were assessed using an Envision 2103 Multilabel Reader (Perkin Elmer).
Supplementary file pgen.1006826.s008.tiff: S4 Fig Qrr4 indirectly regulates cqsS. Fluorescence from plasmid-encoded VCA0107-GFP (circles) and CqsS-mKATE2 (squares) was measured in E. coli. Either an empty vector (pZA31-lucNB, black) or pZA31-lucNB carrying tetracycline-inducible qrr4 (pYS245, red) was present in each strain. VCA0107 encodes a type VI secretion system component that is regulated by Qrr4. Data represent two experiments conducted in triplicate. Error bars represent standard errors of the mean. (TIFF) Click here for additional data file.

Cc1c2c(c(O)c3c(O)cccc13)C(=O)[C@]1(O)C(=O)C(C(N)=O)=C(O)[C@@H](N(C)C)[C@@H]1C2 [aTc]
Relative reporter signal, experimental averages (pCqsS Qrr4, aTc 0.0976562 ng/ml (normalization point)): 1
Relative reporter signal, experimental averages (pCqsS Qrr4, aTc 0.195312 ng/ml, normalized to 0.0976562 ng/ml): 0.9161 and 1.022 and 1.111
Relative reporter signal, experimental averages (pCqsS Qrr4, aTc 0.390625 ng/ml, normalized to 0.0976562 ng/ml): 0.9447 and 1.099 and 1.082
Relative reporter signal, experimental averages (pCqsS Qrr4, aTc 0.78125 ng/ml, normalized to 0.0976562 ng/ml): 0.9451 and 1.129 and 1.056
Relative reporter signal, experimental averages (pCqsS Qrr4, aTc 1.5625 ng/ml, normalized to 0.0976562 ng/ml): 1.068 and 1.16 and 0.9801
Relative reporter signal, single replicates (pCqsS Qrr4, aTc 3.125 ng/ml): 1.44 and 0.9097 and 1.127 and 0.956
Relative reporter signal, experimental averages (pCqsS Qrr4, aTc 3.125 ng/ml, normalized to 0.0976562 ng/ml): 1.078 and 1.159 and 0.9843
Relative reporter signal, single replicates (pCqsS Qrr4, aTc 6.25 ng/ml): 1.264 and 1.158 and 1.22 and 0.881 and 1.097 and 1.0668 and 1.093 and 0.9121 and 1.019
Relative reporter signal, experimental averages (pCqsS Qrr4, aTc 6.25 ng/ml, normalized to 0.0976562 ng/ml): 1.008 and 1.214 and 1.015
Relative reporter signal, single replicates (pCqsS Qrr4, aTc 12.5 ng/ml): 1.4702 and 1.295 and 1.361 and 0.8302 and 0.9914 and 0.8969 and 1.079 and 1.208 and 0.9918
Relative reporter signal, experimental averages (pCqsS Qrr4, aTc 12.5 ng/ml, normalized to 0.0976562 ng/ml): 1.093 and 1.376 and 0.9062
Relative reporter signal, single replicates (pCqsS Qrr4, aTc 25 ng/ml): 1.547 and 1.293 and 1.267 and 0.9302 and 0.911 and 0.8369 and 1.15 and 1.125 and 1.107
Relative reporter signal, experimental averages (pCqsS Qrr4, aTc 25 ng/ml, normalized to 0.0976562 ng/ml): 1.127 and 1.369 and 0.8927
Relative reporter signal, single replicates (pCqsS Qrr4, aTc 50 ng/ml): 1.539 and 1.282 and 1.3008 and 0.9601 and 0.9046 and 0.8156 and 1.287 and 1.24 and 0.9722
Relative reporter signal, experimental averages (pCqsS Qrr4, aTc 50 ng/ml, normalized to 0.0976562 ng/ml): 1.167 and 1.374 and 0.8934
Relative reporter signal, single replicates (pCqsS Qrr4, aTc 100 ng/ml): 1.525 and 1.187 and 1.2288 and 1.039 and 0.9388 and 0.8346 and 1.105 and 1.41 and 1.043
Relative reporter signal, experimental averages (pCqsS Qrr4, aTc 100 ng/ml, normalized to 0.0976562 ng/ml): 1.186 and 1.313 and 0.9374
Relative reporter signal, single replicates (pCqsS Qrr4, aTc 200 ng/ml): 1.816 and 1.134 and 1.357 and 1.246 and 1.145 and 0.8992 and 1.196 and 1.432 and 1.656
Relative reporter signal, experimental averages (pCqsS Qrr4, aTc 200 ng/ml, normalized to 0.0976562 ng/ml): 1.428 and 1.436 and 1.096
Relative reporter signal, experimental averages (pCqsS vector, aTc 0.0976562 ng/ml (normalization point)): 1
Relative reporter signal, experimental averages (pCqsS vector, aTc 0.195312 ng/ml, normalized to 0.0976562 ng/ml): 1.035 and 0.9136
Relative reporter signal, experimental averages (pCqsS vector, aTc 0.390625 ng/ml, normalized to 0.0976562 ng/ml): 1.0872 and 0.9606
Relative reporter signal, experimental averages (pCqsS vector, aTc 0.78125 ng/ml, normalized to 0.0976562 ng/ml): 0.9727 and 0.9156
Relative reporter signal, experimental averages (pCqsS vector, aTc 1.5625 ng/ml, normalized to 0.0976562 ng/ml): 1.033 and 0.9687
Relative reporter signal, single replicates (pCqsS vector, aTc 3.125 ng/ml): 1.095 and 1.006 and 1.033 and 1.049 and 1.037 and 0.9455
Relative reporter signal, experimental averages (pCqsS vector, aTc 3.125 ng/ml, normalized to 0.0976562 ng/ml): 1.045 and 1.01
Relative reporter signal, single replicates (pCqsS vector, aTc 6.25 ng/ml): 1.025 and 0.9971 and 1.015 and 1.078 and 0.9309 and 0.9316
Relative reporter signal, experimental averages (pCqsS vector, aTc 6.25 ng/ml, normalized to 0.0976562 ng/ml): 1.0121 and 0.9801
Relative reporter signal, single replicates (pCqsS vector, aTc 12.5 ng/ml): 1 and 0.9215 and 1.059 and 1.011 and 1.014 and 0.8976
Relative reporter signal, experimental averages (pCqsS vector, aTc 12.5 ng/ml, normalized to 0.0976562 ng/ml): 0.9936 and 0.9741
Relative reporter signal, single replicates (pCqsS vector, aTc 25 ng/ml): 0.9696 and 0.9738 and 0.9202 and 1.059 and 1.016 and 0.9126
Relative reporter signal, experimental averages (pCqsS vector, aTc 25 ng/ml, normalized to 0.0976562 ng/ml): 0.9545 and 0.9958
Relative reporter signal, single replicates (pCqsS vector, aTc 50 ng/ml): 0.9232 and 0.9361 and 1.0359 and 1.102 and 1.073 and 0.9182
Relative reporter signal, experimental averages (pCqsS vector, aTc 50 ng/ml, normalized to 0.0976562 ng/ml): 0.965 and 1.031
Relative reporter signal, single replicates (pCqsS vector, aTc 100 ng/ml): 0.9506 and 0.9792 and 0.9909 and 1.135 and 1.123 and 0.9303
Relative reporter signal, experimental averages (pCqsS vector, aTc 100 ng/ml, normalized to 0.0976562 ng/ml): 0.9736 and 1.063
Relative reporter signal, single replicates (pCqsS vector, aTc 200 ng/ml): 1.017 and 1.029 and 1.01 and 1.335 and 1.085 and 1.09
Relative reporter signal, experimental averages (pCqsS vector, aTc 200 ng/ml, normalized to 0.0976562 ng/ml): 1.019 and 1.17
